Reference: US20040209318A1, “Reagents and methods for the detection and quantification of vancomycin in bilogical fluids” (priority 1995, published 2004)
Like-named read-outs stand apart in the source and are kept apart here.

Experiments:
[1] = target: anti-vancomycin Fab fragment; assay: BIAcore solution competition, equilibrium dissociation constant; assay type: binding, mouse
Procedure: Biosensor surfaces were regenerated after each injection with successive 1 minute pulses of 6 M, 6M, and 1.5 M guanidine hydrochloride. Initial rates of binding of anti-vancomycin Fab fragment to the biosensor surface were measured over a 15 second window beginning 20 seconds postinjection. Data was evaluated by non-linear regression analysis using the solution affinity model built into BIAevaluation 3.0 software (BIAcore, Inc).
The binding affinities of several vancomycin analogs and tracers for anti-vancomycin Fab fragment were determined from solution competition experiments carried out on a BIAcore 2000. Initially, known concentrations of anti-vancomycin Fab fragment (0-22 nM) were injected over the aminoalkyl vancomycin biosensor surface. The initial rate of binding for each anti-vancomycin Fab fragment concentration was obtained by averaging the observed binding rate over a […] window beginning 20 seconds post injection. Data from the first 20 seconds of each sensorgram were omitted due to sample dispersion effects at the start of injections. A plot of initial binding rate versus concentration of anti-vancomycin Fab fragment was fit using a 4-parameter logistic (general model in BIAevaluation 3.0) providing a standard curve. […] A fixed concentration of anti-vancomycin Fab fragment (20 nM) was then mixed with twelve concentrations of each vancomycin analog or tracer and allowed to reach equilibrium. The equilibrium mixtures were individually injected over the aminoalkyl vancomycin biosensor surface, and the concentration of free anti-vancomycin Fab fragment remaining was quantitated by determination of the initial rate of binding to the biosensor surface as described above. A plot of free anti-vancomycin Fab fragment versus total concentration of added analog or tracer provides a competition curve. […] The data points represent the experimentally determined concentrations of free anti-vancomycin Fab fragment in equilibrium solutions at a given concentration of soluble analog or tracer. The curves represent the best nonlinear fit of the data using equation 1 (solution affinity model in BIAevaluation software) below: [formula]
where Fabτ is the concentration of free anti-vancomycin Fab fragment in equilibrium solutions, Fabτ is the total concentration of anti-vancomycin Fab fragment in solution (20 nM), A is the total concentration of added vancomycin analog or tracer, and KD is the equilibrium dissociation constant for the binding of the vancomycin analog or tracer to anti-vancomycin Fab fragment in solution.

[2] = cited from earlier work
[3] = 0.5 μM
Procedure: (§1) Briefly, a continuous flow of HBS buffer at 10 μL/minute was initiated over the biosensor surface. The carboxymethylated dextran matrix on the sensor surface was activated by a 3.5 minute injection of a solution of 0.05 M HNS and 0.2 M EDAC. […] Blank surfaces were generated under identical conditions omitting the ligand immobilization step.
For these studies, an (N^ε-acetyl)KDADA tripeptide containing an aminocaproate linker from the amino terminus was immobilized via amine coupling to an activated carboxymethyl dextran surface of a CM-5 sensor chip.

[4] = test system: anti-vancomycin Fab fragment; conditions: substance immobilized on CM-5 sensor chip
Procedure: as §1
Initial attempts to generate a biosensor surface involved immobilization of vancomycin to the activated carboxymethyl dextran surface of a CM-5 sensor chip through the primary amine of the vancosamine sugar moiety.

[5] = in solution, 20 nM Fab fragment, read-out: Equilibrium Dissociation Constant (KD)

Kd [1, 5] | Structure (SMILES) | half life ([2]; normal patients) | half life ([2]; patients with renal insufficiency) | instrumental response at equilibrium [3] | binding capacity (Rumax) of biosensor surface [4] | Kd ([1]; in the presence of (Nα,Nε-diacetyl)KDADA tripeptide (500 μM), read-out: KD)
1200 ± 100 nM | CNC(CC(C)C)C(=O)NC1C(=O)NC(CC(N)=O)C(=O)NC2C(=O)NC3C(=O)NC(C(=O)NC(C(=O)O)c4cc(O)cc(O)c4-c4cc3ccc4O)C(O)c3ccc(c(Cl)c3)Oc3cc2cc(c3OC2OC(CO)C(O)C(O)C2OC2CC(C)(NC(=O)CCCN(C(=O)c3c4ccccc4[n+](CCCS(=O)(=O)[O-])c4ccccc34)S(=O)(=O)c3ccc(C)cc3)C(O)C(C)O2)Oc2ccc(cc2Cl)C1O (centres unmarked) [compound 15] | – | – | – | – | –
≤ 0.2 nM | CC(C)CC(C(=O)NC1C(=O)NC(CC(N)=O)C(=O)NC2C(=O)NC3C(=O)NC(C(=O)NC(C(=O)O)c4cc(O)cc(O)c4-c4cc3ccc4O)C(O)c3ccc(c(Cl)c3)Oc3cc2cc(c3OC2OC(CO)C(O)C(O)C2OC2CC(C)(N)C(O)C(C)O2)Oc2ccc(cc2Cl)C1O)N(C)C(=O)CCCCC1SCC2NC(=O)NC21 (centres unmarked) [compound 16] | – | – | – | – | –

Structure (SMILES) | Kd [1, 5] | half life ([2]; normal patients) | half life ([2]; patients with renal insufficiency) | instrumental response at equilibrium [3] | binding capacity (Rumax) of biosensor surface [4] | Kd ([1]; in the presence of (Nα,Nε-diacetyl)KDADA tripeptide (500 μM), read-out: KD)
CN[C@H](CC(C)C)C(=O)N[C@H]1C(=O)N[C@@H](CC(N)=O)C(=O)N[C@H]2C(=O)N[C@H]3C(=O)N[C@H](C(=O)N[C@H](C(=O)O)c4cc(O)cc(O)c4-c4cc3ccc4O)[C@H](O)c3ccc(c(Cl)c3)Oc3cc2cc(c3O[C@@H]2O[C@H](CO)[C@@H](O)[C@H](O)[C@H]2O[C@H]2C[C@](C)(N)[C@H](O)[C@H](C)O2)Oc2ccc(cc2Cl)[C@H]1O [vancomycin (1), vancomycin] | ≤ 0.2 nM | 5 to 11 h | 48 to 120 h | approximately 50 Rus | minimal binding capacity | ≤ 0.2 nM
